# Test results reported in ChEMBL document CHEMBL1201862, “PubChem BioAssay data set” (2004).
#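 Values below derive from 48-hour exposures of cells grown in 96-well plates, with endpoints linearly interpolated between the two concentrations bracketing the appropriate inhibition level. At the GI50, growth is halved.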 Active and inactive are the calls of the source. No stated cut-off is given here; in the data, active = GI50 up to about 1.1 µM and inactive = higher.
# Assays:
# Test in all cases: DTP human tumour cell line panel, 48 h
# A498 = system: A498
# ACHN = system: ACHN
# DMS-114 = system: DMS-114
# EKVX = system: EKVX
# HCC 2998 = system: HCC 2998
# HCT-116 = system: HCT-116
# LOX IMVI = system: LOX IMVI
# M14 = system: M14
# OVCAR-4 = system: OVCAR-4
# OVCAR-5 = system: OVCAR-5
# RXF 393 = system: RXF 393
# SF-295 = system: SF-295
# SNB-19 = system: SNB-19
# SW-620 = system: SW-620
# UACC-257 = system: UACC-257
Compound,GI50 (A498),GI50 (ACHN),GI50 (DMS-114),GI50 (EKVX),GI50 (HCC 2998),GI50 (HCT-116),GI50 (LOX IMVI),GI50 (M14),GI50 (OVCAR-4),GI50 (OVCAR-5),GI50 (RXF 393),GI50 (SF-295),GI50 (SNB-19),GI50 (SW-620),GI50 (UACC-257)
CCCCOC(=O)NC(=O)c1cn(CCCOC(=O)NCCCCCCNC(=O)OCCCn2cc(C(=O)NC(=O)OCCCC)c(=O)[nH]c2=O)c(=O)[nH]c1=O,> 100 µM (inactive),> 100 µM (inactive),> 100 µM (inactive),> 100 µM (inactive),> 100 µM (inactive),> 100 µM (inactive),> 100 µM (inactive),> 100 µM (inactive),> 100 µM (inactive),> 100 µM (inactive),> 100 µM (inactive),> 100 µM (inactive),48.4 µM (inactive),> 100 µM (inactive),> 100 µM (inactive)
COc1cc2c(c(C)c1O)[C@H]1COc3ccccc3[C@H]1O2,24.9 µM (inactive),21.2 µM (inactive),5.12 µM (inactive),12.2 µM (inactive),> 10 µM (inactive),5.71 µM (inactive),3.65 µM (inactive),8.15 µM (inactive),17.5 µM (inactive),55.3 µM (inactive),9.06 µM (inactive),27 µM (inactive),1.49 µM (inactive),5.27 µM (inactive),12.4 µM (inactive)
CCCCCN(CCCCC)C(=O)[C@H](CCC(=O)O)NC(=O)c1cc2ccccc2[nH]1,> 100 µM (inactive),49.2 µM (inactive),52.5 µM (inactive),> 100 µM (inactive),33.4 µM (inactive),28.3 µM (inactive),> 100 µM (inactive),59.7 µM (inactive),61 µM (inactive),> 100 µM (inactive),33.3 µM (inactive),57.8 µM (inactive),35.6 µM (inactive),> 100 µM (inactive),> 100 µM (inactive)
N#Cc1sc2nc3c(c(-c4ccccc4)c2c1N)CCCC3,> 100 µM (inactive),76.9 µM (inactive),0.225 µM (active),,> 100 µM (inactive),33.2 µM (inactive),48 µM (inactive),> 10 µM (inactive),> 100 µM (inactive),> 100 µM (inactive),41.8 µM (inactive),22.1 µM (inactive),56.8 µM (inactive),> 100 µM (inactive),> 100 µM (inactive)
O=C(O)\C=C/C=C/C=C/C=C/C(=O)O,> 100 µM (inactive),> 100 µM (inactive),> 100 µM (inactive),> 100 µM (inactive),> 100 µM (inactive),> 100 µM (inactive),> 100 µM (inactive),> 100 µM (inactive),> 100 µM (inactive),> 100 µM (inactive),> 100 µM (inactive),> 100 µM (inactive),> 100 µM (inactive),> 100 µM (inactive),> 100 µM (inactive)
CC12C=C[C@]3(CC[C@@H]4[C@@](C)(CO)CCC[C@]4(C)C3CC1)C2 (stereo partly drawn),22.9 µM (inactive),18.1 µM (inactive),15.5 µM (inactive),24.8 µM (inactive),> 10 µM (inactive),17.9 µM (inactive),15.6 µM (inactive),15.7 µM (inactive),13.6 µM (inactive),6.01 µM (inactive),13.7 µM (inactive),19.5 µM (inactive),19.6 µM (inactive),17.6 µM (inactive),18.5 µM (inactive)
C#CCOCn1cnc2c(S)ncnc21,> 100 µM (inactive),> 100 µM (inactive),> 100 µM (inactive),> 100 µM (inactive),> 100 µM (inactive),,> 100 µM (inactive),> 100 µM (inactive),> 100 µM (inactive),> 100 µM (inactive),> 100 µM (inactive),> 100 µM (inactive),> 100 µM (inactive),> 100 µM (inactive),> 100 µM (inactive)
